Results on 32 compounds are retold here after ChEMBL document CHEMBL3045219, “Molecular modeling studies, synthesis and biological evaluation of derivatives of N-phenylbenzamide as Plasmodium falciparum dihydroorotate dehydrogenase (PfDHODH) inhibitors” (Med Chem Res, 2011).

Bounds are passed on as bounds.

Test [1] deals with T1, Dihydroorotate dehydrogenase (Plasmodium falciparum, UniProt Q54A96).
T1 sequence (Q54A96 whole entry): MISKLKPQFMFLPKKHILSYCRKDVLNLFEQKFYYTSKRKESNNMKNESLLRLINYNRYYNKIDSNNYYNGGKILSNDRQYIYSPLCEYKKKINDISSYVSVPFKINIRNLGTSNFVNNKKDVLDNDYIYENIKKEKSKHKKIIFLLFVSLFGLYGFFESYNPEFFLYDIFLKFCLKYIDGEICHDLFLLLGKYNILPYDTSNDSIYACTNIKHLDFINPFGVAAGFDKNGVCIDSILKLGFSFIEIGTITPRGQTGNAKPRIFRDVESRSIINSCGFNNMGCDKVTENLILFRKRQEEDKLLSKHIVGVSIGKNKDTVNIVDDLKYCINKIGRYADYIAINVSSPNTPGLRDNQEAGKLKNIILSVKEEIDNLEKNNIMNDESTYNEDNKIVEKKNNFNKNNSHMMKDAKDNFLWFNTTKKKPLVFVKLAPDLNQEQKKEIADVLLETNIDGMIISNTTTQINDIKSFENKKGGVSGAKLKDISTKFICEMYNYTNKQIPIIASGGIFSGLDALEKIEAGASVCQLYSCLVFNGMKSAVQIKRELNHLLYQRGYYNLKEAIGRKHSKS
The experiment in a line: Inhibition of Plasmodium falciparum HIs6-tagged DHODH expressed in Escherichia coli DH5alpha using L-dihydroorotate as substrate by DCIP-based spectrophotometric analysis.

For the next test, the system named is Plasmodium falciparum. As to the kind of experiment: Antiplasmodial activity against Plasmodium falciparum assessed as inhibition of [3H]hypoxanthine incorporation. It counts as functional, organism-based.

Take `O=C(Nc1ccccc1C(F)(F)F)Nc1cccc2ccccc12`: the IC50 in test [1] is 0.2 µM.

Turning to `O=C(Nc1ccc(F)c(Cl)c1)c1ccccc1`, the IC50 with Plasmodium falciparum worked out at 5.7 µM.

For the compound `Cc1ccc(NC(=O)/C(C#N)=C(\O)C2CC2)cc1`, the IC50 in test [1] is 871 µM.

In the case of `N#C/C(C(=O)Nc1ccc(C#N)cc1)=C(/O)C1CC1`, in test [1], the IC50 was 708 µM.

Take `N#C/C(C(=O)Nc1ccc(C(F)(F)F)cc1)=C(/O)C1CC1`: the half-inhibitory concentration (IC50) in test [1] is 1070 µM.

In the case of `Cc1ccc(NC(=O)c2ccccc2)cc1`, in the test on Plasmodium falciparum, the IC50 was above 10 µM.

Consider `O=C(Nc1ccc([N+](=O)[O-])cc1)c1ccccc1`, for which the IC50 in the test on Plasmodium falciparum was above 10 µM.

For the compound `O=C(Nc1ccccc1Cl)c1ccccc1`, the IC50 in the test on Plasmodium falciparum was above 10 µM.

As for `O=C(Nc1cccc([N+](=O)[O-])c1)c1ccccc1`, in the test with Plasmodium falciparum, the IC50 is above 10 µM.

Turning to `O=C(Nc1cccc(Cl)c1)c1ccccc1`, in the test on Plasmodium falciparum, the IC50 was 8.7 µM.

For the compound `O=C(Nc1ccccc1[N+](=O)[O-])c1ccccc1`, the IC50 in the test with Plasmodium falciparum is above 10 µM.

Compound `Cc1c(C(=O)Nc2cc(Cl)cc(Cl)c2)cccc1[N+](=O)[O-]` had an IC50 in test [1] of 0.151 µM.

As to `O=C(Nc1ccc(Cl)cc1)c1ccccc1`, the IC50 in the test on Plasmodium falciparum was above 10 µM.

With `O=C(Nc1cccc(Cl)c1Cl)c1ccccc1`, in the test with Plasmodium falciparum, the IC50 is above 10 µM.

As to `O=C(Nc1ccc(Cl)cc1Cl)c1ccccc1`, in the test on Plasmodium falciparum, the half-inhibitory concentration (IC50) was above 10 µM.

Consider `Cc1cccc(NC(=O)c2ccccc2)c1`, for which the IC50 with Plasmodium falciparum is above 10 µM.

Turning to `COc1ccc(NC(=O)c2ccccc2)cc1Cl`, the IC50 in the test with Plasmodium falciparum is above 10 µM.

Take `O=C(Nc1ccc(Br)cc1)c1ccccc1`: the IC50 in the test with Plasmodium falciparum is above 10 µM.

Take `O=C(Nc1ccc(Cl)cc1Cl)c1ccc2ccccc2c1`: the IC50 in test [1] was 0.1 µM.

As to `Cc1ccc(NC(=O)c2ccc3ccccc3c2)c(Cl)c1`, half-maximal inhibition in test [1] (IC50) was put at 0.151 µM.

With `O=C(Nc1ccccc1F)c1ccc2ccccc2c1`, the IC50 in test [1] is 0.251 µM.

The compound `Cc1c(C(=O)Nc2cccc(Br)c2)cccc1[N+](=O)[O-]` had an IC50 in test [1] of 0.1 µM.

Regarding `Cc1c(C(=O)Nc2ccc(F)c(F)c2)cccc1[N+](=O)[O-]`, the IC50 in test [1] was 0.151 µM.

In test [1], `Cc1c(C(=O)Nc2cccc3ccccc23)cccc1[N+](=O)[O-]` gave an IC50 of 0.1 µM.

`Cc1c(C(=O)Nc2ccc(Cl)c(Cl)c2)cccc1[N+](=O)[O-]` gave an IC50 in test [1] of 0.251 µM.

`Cc1cccc(NC(=O)c2cccc([N+](=O)[O-])c2C)c1` showed an IC50 in test [1] of 0.302 µM.

In test [1], `COc1ccccc1NC(=O)Nc1cccc2ccccc12` gave an IC50 of 0.251 µM.

In turn, `O=C(Nc1ccc(Cl)cc1)Nc1cccc2cccnc12` showed an IC50 in test [1] of 0.55 µM.

For `N#C/C(C(=O)Nc1ccc([N+](=O)[O-])cc1)=C(/O)C1CC1`, half-maximal inhibition in test [1] (IC50) required 537 µM.

Take `C[C@H]1[C@H](OC(=O)CCC(=O)O)O[C@@H]2O[C@@]3(C)CC[C@H]4[C@H](C)CC[C@@H]1[C@@]24OO3` [ARTESUNATE]: the IC50 with Plasmodium falciparum came out at 0.017 µM.

Consider `Cc1ccccc1NC(=O)c1ccccc1` [N-O-TOLYLBENZAMIDE], for which the IC50 in the test with Plasmodium falciparum is above 10 µM.

As for `O=C(Nc1ccccc1)c1ccccc1` [N-PHENYLBENZAMIDE], the IC50 in the test with Plasmodium falciparum is above 10 µM.
